# Results from article PMC5760651, “Peptidomimetic blockade of MYB in acute myeloid leukemia” (Nature Communications, 2018).
# Non-standard residues stand in square brackets, D forms with d. Residues, ends and D or L forms follow the SMILES beside them.
# Key:
# CBP KIX domain = target: T1, CBP KIX domain (Mus musculus, UniProt P45481); assay: Microscale thermophoresis binding of FITC-conjugated peptides to purified recombinant CBP KIX domain; settings: 50 mM sodium phosphate, 150 mM NaCl, 0.01% NP-40, pH 5.5, room temperature, ± standard error mean of three biological replicates
# T1 construct: Bacterial expression pGEX-KIX vector encoding the KIX domain of CBP; GST (N, cleaved yes); made in house; host or cells: E. coli BL21(DE3)
# Experimental: BL21(DE3) cells (Invitrogen) transformed with pGEX-KIX plasmid were induced at 37 °C with isopropyl β-D-1-thiogalactopyranoside for 3 h. Cells were lysed in 50 mM Tris–HCl pH 7.3, 150 mM NaCl, 0.1% Tween-20, 1 mM DTT, 5 mM EDTA, supplemented with protease inhibitors described above and sonicated for ten minutes (15 s on, 15 s off, 40% amplitude) using the Misonix probe sonicator (Qsonica, Newtown, CT). Lysate was cleared by centrifugation for 1 h at 21,800 × g at 4 °C. Cleared lysate was incubated with 4 ml glutathione agarose resin slurry (GoldBio) for 1 h at 4 °C to capture GST-KIX. Resin was washed four times with 50 mM Tris–HCl pH 7.4, 150 mM NaCl. KIX domain was cleaved from GST by incubation of resin-bound GST-KIX with 160 U thrombin (GE Healthcare) overnight at room temperature. Resin was centrifuged at 500 × g for 5 min. […] Cleaved KIX was purified using a linear gradient of 50 mM to 1 M NaCl by cation exchange chromatography using MonoS 5/50 GL column (GE Healthcare). […] Binding of purified recombinant KIX with FITC-conjugated peptides was measured using Monolith NT.115 (NanoTemper Technologies). Assays were conducted in 50 mM sodium phosphate, 150 mM NaCl, 0.01% NP-40, pH 5.5. […] MST measurements were recorded at room temperature for 10 s per capillary using fixed IR-laser power of 80% and LED excitation power of 40–50%.
# MOLM-13 cells = assay: RNA-seq transcriptome profiling; assay type: cell-based, human; settings: MOLM13 cells, 20 µM, 6 h
# Experimental: Reads were quality and adapter trimmed using “trim_galore” before aligning to human assembly hg19 with STAR v2.5 using the default parameters. Coverage and post-alignment quality were assessed using the Picard tool CollectRNASeqMetrics (http://broadinstitute.github.io/picard/). Read count tables were created using HTSeq v0.6.1. Normalization and expression dynamics were evaluated with DESeq2 using the default parameters.
# MV-411 cells [1] = assay: MYB ChIP-seq; assay type: cell-based, human; settings: 20 µM, 6 h, 3 biological replicates
# Experimental: ChIP was performed as previously described. Briefly, cells were fixed in 1% formalin in phosphate-buffered saline (PBS) for 10 minutes at room temperature. Glycine (125 mM final concentration) and Tris-HCl pH 8 (100 mM final concentration) were added to the cells and cells were washed twice in ice-cold PBS and resuspended in sodium dodecyl sulfate (SDS) lysis buffer (1% SDS, 10 mM EDTA, 50 mM Tris–HCl, pH 8.1). Lysates were sonicated using the Covaris S220 adaptive focused sonicator to obtain 100–500 bp chromatin fragments (Covaris, Woburn, CA). Lysates containing sheared chromatin fragments were resuspended in 0.01% SDS, 1.1% Triton-X100, 1.2 mM EDTA, 16.7 mM Tris–HCl, pH 8.1,167 mM NaCl. Lysates and antibody-coupled beads were incubated over night at 4 °C. […] Libraries were sequenced on the Illumina HiSeq 2500 instruments, with 30 million 2 × 50 bp paired reads.
# For ChIP-seq analysis, reads were quality and adapter trimmed using ‘trim_galore’ before aligning to human genome assembly hg19 with bwa mem using the default parameters. Aligned reads with the same start position and orientation were collapsed to a single read before subsequent analysis. Density profiles were created by extending each read to the average library fragment size and then computing density using the BEDTools suite. Enriched regions were discovered using MACS 2.0 and scored against matched input libraries. […]
# [2] = system: MOLM-13, MV-411, ML-2 and HL-60 cells; assay: Cell viability of AML cell lines; assay type: cell-based, human; settings: 6 days, 20 μM TG1, TG2 or TG3, 10 and 20 μM MYBMIM, peptide replacement every 48 h, compared to untreated control
# Experimental: (§1) Cells were resuspended and plated at a concentration of 2 × 10^5 cells in 200 μl in 96-well tissue culture plates. Media with peptides was replaced every 48 h. To assess the number of viable cells, cells were resuspended in PBS and 10 µl of suspension was mixed in a 1:1 ratio with 0.4% Trypan Blue (Thermo Fisher) and counted using a hemacytometer (Hausser Scientific, Horsham, PA, USA). To assess viability using an ATP-based assay, cell viability was assessed using the CellTiter-Glo Luminescent Viability assay, according to the manufacturer’s instructions (Promega). Luminescence was recorded using the Infinite M1000Pro plate reader using integration time of 250 ms (Tecan).
# MV-411 and MOLM-13 cells = assay: qRT-PCR of BCL2 mRNA expression; assay type: cell-based, human; settings: 20 μM, 6 h
# Experimental: RNA was isolated using Trizol reagent according to the manufacturer’s instructions (Life Technologies). Complementary DNA was synthesized using the SuperScript III First-Strand Synthesis system according to the manufacturer’s instructions (Invitrogen). Quantitative real-time PCR was performed using the KAPA SYBR FAST PCR polymerase with 20 ng template and 200 nM primers, according to the manufacturer’s instructions (Kapa Biosystems, Wilmington, MA, USA). PCR primers are listed in Supplementary Table 4. Ct values were calculated using ROX normalization using the ViiA 7 software (Applied Biosystems).
# MV-411 cells [3] = assay: Growth and survival of MV-411 cells with ectopic BCL2 (MIG-BCL2) or empty MIG vector; assay type: cell-based, human; settings: 20 μM, p = 0.003
# Experimental: as §1
# The MIG-BCL2 vector was packaged using pUMVc and pCMV-VSVG vectors in HEK 293T cells and the FuGENE 6 transfection reagent, according to manufacturer’s instructions (Promega). Virus supernatant was collected at 48 and 72 h post transfection, pooled, filtered and stored at −80 °C. Cells were transduced with virus particles at a multiplicity of infection of 1 by spin inoculation for 90 min at 3500 rpm at 35 °C in the presence of 8 μg/ml hexadimethrine bromide. Two days after transduction, cells were isolated using fluorescence-activated cell sorting (FACSAria III, BD Bioscience, San Jose, CA, USA).
# T1 sequence (P45481 586-665 limits assumed): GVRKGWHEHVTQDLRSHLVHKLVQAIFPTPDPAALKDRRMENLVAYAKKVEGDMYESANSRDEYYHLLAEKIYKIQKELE
structure (smiles),measurement,setting,value
CC[C@@H](C)[C@@H](NC(=O)[C@@H](CCCCN)NC(=O)[C@@H](CCC(=O)O)NC(=O)[C@@H](CC(C)C)NC(=O)[C@@H](CCC(=O)O)NC(=O)[C@@H](CC(C)C)NC(=O)[C@@H](CC(C)C)NC(=O)CNC(=O)[C@@H](CCSC)NC(=O)[C@@H](CO)NC(=O)[C@H](NC(=O)[C@@H](CCC(=O)O)NC(=O)[C@@H](CC(N)=O)NC(=O)CNC(=O)[C@@H](CC(C)C)NC(=O)[C@@H](CCCCN)NC(C)=O)[C@H](C)O)C(=O)NCC(=O)N[C@H](CCCCN)C(=O)NCC(=O)NCC(=O)N[C@H](CCCNC(=N)N)C(=O)N[C@H](CCCNC(=N)N)C(=O)N[C@H](CCCNC(=N)N)C(=O)N[C@H](CCC(N)=O)C(=O)N[C@H](CCCNC(=N)N)C(=O)N[C@H](CCCNC(=N)N)C(=O)N[C@H](CCCCN)C(=O)N[C@H](CCCCN)C(=O)N[C@H](CCCNC(=N)N)C(=O)NCC(=O)N[C@H](Cc1ccc(O)cc1)C(N)=O [TG3] (Ac-[dK][dL]G[dN][dE][dT][dS][dM]G[dL][dL][dE][dL][dE][dK][dI]G[dK]GG[dR][dR][dR][dQ][dR][dR][dK][dK][dR]G[dY]-NH2),Kd,CBP KIX domain,113 ± 36.6 µM
same,Changes in gene expression as compared to mock-treated cells,MOLM-13 cells,no significant changes in gene expression
same,MYB complexes bound to promoters and enhancers eliminated,MV-411 cells [1],inactive
same,Growth of AML cell lines,[2],inactive
same,BCL2 expression downregulation,MV-411 and MOLM-13 cells,not
same,Cell growth and survival of mock-treated and MIG empty vector control transduced MV-411 cells,MV-411 cells [3],inactive
